According to US20250136606A1, “MODULATORS OF TRPML, THEIR COMPOSITIONS AND METHODS OF USE” (Caraway Therapeutics, Inc., priority 2021, published 2025):
Like-named read-outs stand apart in the source and are kept apart here.

How the values were obtained:
Type in all cases: cell-based
TRPML1 = TRPML1 (Homo sapiens, UniProt Q9GZU1); assay: Fluorescent TRPML1 assay (Fluo4-AM calcium fluorescence in doxycycline-induced HEK-293 Trex cells)
In short: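 First, expression of surface-targeted mutant human TRPML1 is induced in HEK-293 Trex cells with 0.5 ug/mL doxycycline the day before. Next, cells take up 1 micromolar Fluo4-AM in Ringer's with 0.1% Pluronic. Finally, they are added to compounds (6 nanomolar–20 micromolar final) in 10 mM calcium Ringer's and fluorescence is read.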

TRPML3 = target: T1, TRPML3 (Homo sapiens, UniProt Q8TDD5); assay: Fluorescent TRPML3 assay (performed as for TRPML1, substituting the TRPML3 subtype)
T1 construct: expressed in transfected cells
T1 sequence (Q8TDD5 1-553): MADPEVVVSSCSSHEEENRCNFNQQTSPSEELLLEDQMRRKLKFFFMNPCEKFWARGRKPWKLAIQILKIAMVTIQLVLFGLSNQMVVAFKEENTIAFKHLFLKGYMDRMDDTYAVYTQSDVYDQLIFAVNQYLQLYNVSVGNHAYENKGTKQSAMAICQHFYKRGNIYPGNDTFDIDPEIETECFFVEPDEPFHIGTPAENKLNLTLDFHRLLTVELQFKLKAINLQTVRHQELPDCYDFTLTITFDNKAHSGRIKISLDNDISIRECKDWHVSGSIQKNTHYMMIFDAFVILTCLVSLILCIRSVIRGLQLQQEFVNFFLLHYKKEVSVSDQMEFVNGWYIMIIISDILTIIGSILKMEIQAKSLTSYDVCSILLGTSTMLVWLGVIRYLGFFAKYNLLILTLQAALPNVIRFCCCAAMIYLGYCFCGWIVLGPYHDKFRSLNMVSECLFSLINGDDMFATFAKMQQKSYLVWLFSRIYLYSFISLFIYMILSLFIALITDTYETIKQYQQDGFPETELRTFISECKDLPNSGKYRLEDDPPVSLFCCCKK
In short: (§1)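 Doxycycline-induced (0.5 ug/mL) HEK-293 Trex cells stably expressing surface-directed mutant channel were loaded with 1 micromolar Fluo4-AM, resuspended in Ringer's with 10 mM calcium and added to compound plates. Fluorescence (ex 480, em 540 nm) gave percent activity versus on-plate controls; EC50 by non-linear regression.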

TRPML2 = target: T2, TRPML2 (Homo sapiens, UniProt Q8IZK6); assay: Fluorescent TRPML2 assay (performed as for TRPML1, substituting the TRPML2 subtype)
T2 construct: expressed in transfected cells
T2 sequence (Q8IZK6 1-566): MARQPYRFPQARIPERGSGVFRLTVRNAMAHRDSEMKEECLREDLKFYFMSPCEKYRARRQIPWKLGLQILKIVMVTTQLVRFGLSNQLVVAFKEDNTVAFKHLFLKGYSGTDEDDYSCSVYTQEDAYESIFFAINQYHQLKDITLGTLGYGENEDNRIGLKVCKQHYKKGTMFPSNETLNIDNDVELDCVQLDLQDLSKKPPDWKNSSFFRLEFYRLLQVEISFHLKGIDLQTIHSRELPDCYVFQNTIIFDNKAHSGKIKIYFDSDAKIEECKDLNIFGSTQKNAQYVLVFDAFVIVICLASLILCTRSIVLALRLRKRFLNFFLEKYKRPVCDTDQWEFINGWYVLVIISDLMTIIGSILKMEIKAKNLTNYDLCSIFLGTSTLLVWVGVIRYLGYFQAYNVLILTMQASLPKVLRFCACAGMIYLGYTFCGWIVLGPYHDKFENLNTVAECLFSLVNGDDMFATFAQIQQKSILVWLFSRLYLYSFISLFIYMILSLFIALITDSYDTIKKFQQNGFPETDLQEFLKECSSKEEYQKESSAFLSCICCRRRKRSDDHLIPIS
In short: as §1

Sequence of TRPML1 (Q9GZU1 whole entry L15A/L16A/L577A/L578A, form open): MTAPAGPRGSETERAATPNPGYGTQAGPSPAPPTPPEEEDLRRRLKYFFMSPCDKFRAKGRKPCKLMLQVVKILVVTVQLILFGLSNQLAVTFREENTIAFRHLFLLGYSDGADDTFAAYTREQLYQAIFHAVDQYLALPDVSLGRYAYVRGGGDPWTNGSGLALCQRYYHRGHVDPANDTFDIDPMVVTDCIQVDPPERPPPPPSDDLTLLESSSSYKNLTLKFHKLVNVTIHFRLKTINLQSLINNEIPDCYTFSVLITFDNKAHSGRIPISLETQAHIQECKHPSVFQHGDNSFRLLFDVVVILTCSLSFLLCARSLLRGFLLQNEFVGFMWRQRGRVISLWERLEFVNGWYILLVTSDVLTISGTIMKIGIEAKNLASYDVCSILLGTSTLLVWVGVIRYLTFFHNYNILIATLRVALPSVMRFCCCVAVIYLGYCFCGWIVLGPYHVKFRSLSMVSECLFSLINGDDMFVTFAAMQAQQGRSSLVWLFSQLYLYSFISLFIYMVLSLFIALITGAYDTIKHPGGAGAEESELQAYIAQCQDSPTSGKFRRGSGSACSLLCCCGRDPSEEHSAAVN

Compound	EC50 (TRPML1)	EC50 (TRPML3)	EC50 (TRPML2)	EC50 (TRPML1; fluorescent calcium assay)	EC50 (TRPML3; fluorescent calcium assay)	EC50 (TRPML2; fluorescent calcium assay)
C[C@@H]1CN(c2ncnc3c2c(C(F)(F)F)cn3-c2cc(F)ccn2)[C@@H](C)CN1C(=O)OC(C)(C)C [Compound 505, tert-butyl (2R,5S)-4-(7-(4-fluoropyridin-2-yl)-5-(trifluoromethyl)-7H-pyrrolo[2,3-d]pyrimidin-4-yl)-2,5-dimethylpiperazine-1-carboxylate]	< 100 nM	< 100 nM	> 2000 nM			
C[C@@H]1CN(c2ncnc3c2c(C2CC2)cn3-c2cccc(F)c2)[C@@H](C)CN1C(=O)OC1(C)CC1 [Compound 658, 1-methylcyclopropyl (2R,5S)-4-(5-cyclopropyl-7-(3-fluorophenyl)-7H-pyrrolo[2,3-d]pyrimidin-4-yl)-2,5-dimethylpiperazine-1-carboxylate]	< 100 nM	100 to 500 nM	500 to 2000 nM			
COc1cncc(-n2cc(C3CC3)c3c(N4CCN(C(=O)OC(C)(C)C)CC4)ncnc32)c1 [Compound 104, tert-butyl 4-(5-cyclopropyl-7-(5-methoxypyridin-3-yl)-7H-pyrrolo[2,3-d]pyrimidin-4-yl)piperazine-1-carboxylate]				500 to 2000 nM	100 to 500 nM	> 2000 nM
C[C@@H]1CN(c2ncnc3c2c(C(F)(F)F)cn3-c2cc(C#N)ccn2)[C@@H](C)CN1C(=O)OC1(C)CC1 [Compound 519, 1-methylcyclopropyl (2R,5S)-4-(7-(4-cyanopyridin-2-yl)-5-(trifluoromethyl)-7H-pyrrolo[2,3-d]pyrimidin-4-yl)-2,5-dimethylpiperazine-1-carboxylate]	< 100 nM	< 100 nM	100 to 500 nM			

The next lines start with the values.

EC50 (TRPML1)	EC50 (TRPML3)	EC50 (TRPML2)	EC50 (TRPML1; fluorescent calcium assay)	EC50 (TRPML3; fluorescent calcium assay)	EC50 (TRPML2; fluorescent calcium assay)	Compound
			< 100 nM	< 100 nM	500 to 2000 nM	C[C@@H]1CN(c2ncnc3c2c(-c2ccccc2F)cn3-c2cccnc2)[C@@H](C)CN1C(=O)OC(C)(C)C [Compound 142, tert-butyl (2R,5S)-4-(5-(2-fluorophenyl)-7-(pyridin-3-yl)-7H-pyrrolo[2,3-d]pyrimidin-4-yl)-2,5-dimethylpiperazine-1-carboxylate]
			< 100 nM	100 to 500 nM	> 2000 nM	CCOC(=O)N1C[C@H](C)N(c2ncnc3c2c(C2CC2)cn3-c2cccc(Cl)c2)C[C@H]1C [Compound 132, Ethyl (2R,5S)-4-(7-(3-chlorophenyl)-5-cyclopropyl-7H-pyrrolo[2,3-d]pyrimidin-4-yl)-2,5-dimethylpiperazine-1-carboxylate]
			100 to 500 nM	< 100 nM	< 100 nM	CC(C)(C)OC(=O)N1CCN(c2ncnc3c2c(C2CC2)cn3-c2cc(C#N)ccn2)C(C)(C)C1 [Compound 421, tert-butyl 4-(7-(4-cyanopyridin-2-yl)-5-cyclopropyl-7H-pyrrolo[2,3-d]pyrimidin-4-yl)-3,3-dimethylpiperazine-1-carboxylate]
			< 100 nM	< 100 nM	100 to 500 nM	C[C@H]1CN(C(=O)OC(C)(C)C(F)(F)F)CCN1c1ncnc2c1c(C1CC1)cn2-c1cccc(OC(F)(F)F)c1 [Compound 265, 1,1,1-trifluoro-2-methylpropan-2-yl (S)-4-(5-cyclopropyl-7-(3-(trifluoromethoxy)phenyl)-7H-pyrrolo[2,3-d]pyrimidin-4-yl)-3-methylpiperazine-1-carboxylate]
			< 100 nM	< 100 nM	< 100 nM	C[C@H]1CN(C(=O)OCC(F)(F)F)CCN1c1ncnc2c1c(-c1ccccc1F)cn2-c1cc(C#N)ccn1 [Compound 349, 2,2,2-trifluoroethyl (S)-4-(7-(4-cyanopyridin-2-yl)-5-(2-fluorophenyl)-7H-pyrrolo[2,3-d]pyrimidin-4-yl)-3-methylpiperazine-1-carboxylate]
			< 100 nM	< 100 nM	100 to 500 nM	C[C@@H]1CN(c2ncnc3c2c(-c2ccccc2F)cn3-c2cnn(C)c2)[C@@H](C)CN1C(=O)OC(C)(C)C(F)(F)F [Compound 186, 1,1,1-trifluoro-2-methylpropan-2-yl (2R,5S)-4-(5-(2-fluorophenyl)-7-(1-methyl-1H-pyrazol-4-yl)-7H-pyrrolo[2,3-d]pyrimidin-4-yl)-2,5-dimethylpiperazine-1-carboxylate]
